These results are taken from patent US6496728B2, “Methods for extracting substances using alternating current” (University of Utah Research Foundation, priority 2000, dated 2002).

The nature of data set [1]: AC without DC offset (AC + passive) transport across human epidermal membrane in side-by-side diffusion cell. It counts as in vitro ADME. The settings on record: target skin resistance 2 kΩ; for Papp: all data points from 100 to 330 min. The source says:
The same protocol was used to reduce the skin electrical resistance to 2 kΩ as described in the AC+DC Offset method. […] Permeants and sampling protocol were the same as in the Constant Current and AC+DC Offset sessions as described above.

The nature of data set [2]: AC + DC offset iontophoretic transport across human epidermal membrane in side-by-side diffusion cell. Type of data set: in vitro ADME. The source says:
The output AC voltage was manually adjusted between 3 to 8 volts to keep the skin resistance at 2 kΩ (±10%) and the DC offset value was kept constant at 0.25 V during the entire period of the experiment. The same permeants and sampling protocol were used as described in the Constant Current Session.

Data set [3] is described as follows: Constant current DC iontophoretic transport across human epidermal membrane in side-by-side diffusion cell. Here is the method: Iontophoretic transport studies were carried out in a side-by-side two-chamber diffusion cell (diffusional surface area of around 0.8 cm^2 and chamber volume of 2 mL) with HEM at 37° C. The apparent permeability coefficients (P) in each experiment were calculated by: [formula]
where A is the membrane surface area, t is time, Q is the amount of permeant transported into the receiver chamber, and CD is the concentration of permeant in the donor chamber. The pH of the solutions in the donor and receiver chambers was checked after each iontophoresis run to detect possible water hydrolysis.
Constant current DC transport experiments were carried out at the current level of 0.13 mA/cm^2 using a constant current iontophoretic device (phoresor II Auto, Model No. PM 850, Iomed, Inc., Salt Lake City, Utah) with Ag—AgCl electrodes. […] HEM resistance during iontophoresis was measured by monitoring the electrical potential drop across the membrane using two flexible Luggin capillaries which were inserted into the donor and receiver compartments of the diffusion cells. Each of the Luggin capillaries contained a calomel electrode connected to a voltmeter. The HEM resistance could be determined during iontophoresis according the output current level and the voltmeter readings.
A trace amount of [^14C] […] One ml of sample was taken from the receiver chamber approximately every 30 minutes and replaced with the fresh PBS. A 10 μl sample was taken from the donor chamber every hour. Samples were mixed with 10 ml scintillation cocktail (Ultima Gold™, Packard Instrument Co., Meriden, Conn.) and assayed by a dual-labeled liquid scintillation counter (Parkard TriCarb™ Model 1900 TR Liquid Scintillation Analyzer).

Where [4] appears, read: AC + DC, 50 Hz, DC offset 250 mV, target skin resistance 2 kΩ, data points between 100 and 330 minutes.
Where [5] appears, read: 0.13 mA/cm^2 DC, data points between 100 and 330 minutes.

The structures appear in SMILES notation.

For `OC[C@@H](O)[C@@H](O)[C@H](O)[C@H](O)CO` [Mannitol, mannitol], the “Slope of normalized mannitol flux versus time (linear regression)” value in data set [1] (AC 50 Hz, no DC offset, data points between 100 and 330 minutes) is recorded as 7 × 10^−11 cm sec^−1 min^−1; in data set [2] (setting [4]) it was 4 × 10^−11 cm sec^−1 min^−1; in data set [3] (setting [5]), 4 × 10^−10 cm sec^−1 min^−1. Further, the Papp in data set [1] (human, AC (50 Hz) w/o DC offset, 28 points (4 skin samples), read-out: Mannitol permeability coefficient, mean) was found to be 0.0985 ×10⁻⁶ cm/s; in data set [2] (human, AC (50 Hz) with 0.25 V DC offset, target skin resistance 2 kΩ, all data points from 100 to 330 min, 36 points (6 skin samples), read-out: Mannitol permeability coefficient, mean), 0.16 ×10⁻⁶ cm/s; in data set [3] (human), 0.16 ×10⁻⁶ cm/s. Also, the Papp at 180 min is 0.101 ×10⁻⁶ cm/s in data set [1] (human, AC (50 Hz) w/o DC offset, one time point (180 min), 4 samples, read-out: Mannitol permeability coefficient, mean); 0.17 ×10⁻⁶ cm/s in data set [2] (human, AC (50 Hz) with 0.25 V DC offset, target skin resistance 2 kΩ, one time point (180 min), 6 samples, read-out: Mannitol permeability coefficient, mean); 0.15 ×10⁻⁶ cm/s in data set [3] (human). For the same molecule, the “Rate of change of mannitol flux, lower with AC+DC Offset method compared with AC without DC Offset method” value in data set [2] (AC+DC Offset versus AC without DC Offset) was determined as 57%. Besides, the “Rate of change of mannitol flux, fold higher with constant current DC than with AC without DC Offset” value in data set [3] (constant current DC versus AC without DC Offset) came out at 5.7 fold. The “Rate of change of mannitol flux, fold higher with constant current DC than with AC+DC Offset” value in data set [3] (constant current DC versus AC+DC Offset) came out at 10 fold.

For `CC[N+](CC)(CC)CC.[Br-]` [TEA^+, tetraethylammonium bromide], in data set [1] (human, AC (50 Hz) w/o DC offset, 28 points (4 samples), read-out: TEA^+ permeability coefficient, mean), the Papp is 1.08 ×10⁻⁶ cm/s. For the same molecule, the results for the “Slope of normalized TEA^+ flux versus time (linear regression)” value in data set [2] (setting [4]) and in data set [3] (setting [5]) were 2 × 10^−9 cm sec^−1 min^−1 and 6 × 10^−9 cm sec^−1 min^−1, respectively.
